Entries after “also recorded” stand apart in the source; their conditions may differ.
Tested on: EGF-induced AA release in HaCaT keratinocytes
Experiment: [3H]-Arachidonic acid release assay in EGF-stimulated HaCaT keratinocytes
Assay type: cell-based, human
Details: EGF 100 ng/ml 1 h, dose-dependent, FIG. 2
Description: The spontaneously immortalized skin keratinocyte cell line HaCaT (kindly provided by Prof. N. Fusenig, Heidelberg, Deutsches Krebsforschungszentrum, Germany) was cultured in DMEM supplemented with 10% (v/v) FBS, 0.3 mg/ml glutamine, and 0.1 mg/ml gentamicin at 37° C. with 5% CO2 in a humidified atmosphere. For release assays, flow cytometry cell cycle analysis and in vitro cPLA2α activity assay, cells were grown in 48 well trays or in 6 well trays, respectively. Cells were cultivated until 2 days post-confluency; serum starved in DMEM/0.5% FBS overnight and processed at day 3 post-confluence to ensure differentiation. Experiments were performed in DMEM/0.5% FBS. Untreated cells without inducing agents were included for unstimulated control. […] Cells were lysed and 200 μg of total protein was analyzed for cPLA2α activity as described. […] Following washing three times with Tris-buffered saline containing […], immunoreactive proteins were detected by horseradish peroxidase-conjugated secondary antibody (1 hour at room temperature) and SuperSignal® West Femto Maximum Sensivity substrate. Blots were analyzed by the BioRad Image Lab software, and target protein band intensities were normalized to α-tubulin. […] After labelling, the cells were washed twice with phosphate-buffered saline (PBS) containing fatty acid free BSA (2 mg/ml) (fBSA) in order to remove unincorporated radioactivity. […]

SMILES: CC/C=C\C/C=C\C/C=C\C/C=C\C/C=C\CCSCC(=O)C(F)(F)F [AVX002]
- effect on EGF-induced AA-release: completely abrogated; also recorded: reduced AA-release to below basal release in a dose-dependent manner

From patent US10085953B2, “Skin cancer treatment” (Avexxin AS, priority 2014, dated 2018)
